Experimental findings from ChEMBL document CHEMBL1909046, “DrugMatrix in vitro pharmacology data” are described below.

One test addresses T1, B2 bradykinin receptor (Homo sapiens, UniProt P30411).
T1 sequence (P30411 whole entry): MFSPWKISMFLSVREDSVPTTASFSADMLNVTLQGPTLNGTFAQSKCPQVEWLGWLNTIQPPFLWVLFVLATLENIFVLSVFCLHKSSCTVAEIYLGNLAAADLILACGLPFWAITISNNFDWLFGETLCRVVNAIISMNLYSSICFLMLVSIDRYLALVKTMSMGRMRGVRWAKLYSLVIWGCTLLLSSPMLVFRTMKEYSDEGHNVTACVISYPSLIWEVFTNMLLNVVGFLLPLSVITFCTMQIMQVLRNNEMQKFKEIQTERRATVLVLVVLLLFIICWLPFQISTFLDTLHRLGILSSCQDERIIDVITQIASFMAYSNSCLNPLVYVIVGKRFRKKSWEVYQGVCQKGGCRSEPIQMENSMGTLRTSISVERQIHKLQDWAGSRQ
The format is cell membranes, Membrane. The settings on record: chem-1.

In test [1] the target is T2, Muscarinic acetylcholine receptor M2 (Homo sapiens, UniProt P08172). Further: in other assays of this panel Not Active means under 50% inhibition at 10 µM.
T2 sequence (P08172 whole entry): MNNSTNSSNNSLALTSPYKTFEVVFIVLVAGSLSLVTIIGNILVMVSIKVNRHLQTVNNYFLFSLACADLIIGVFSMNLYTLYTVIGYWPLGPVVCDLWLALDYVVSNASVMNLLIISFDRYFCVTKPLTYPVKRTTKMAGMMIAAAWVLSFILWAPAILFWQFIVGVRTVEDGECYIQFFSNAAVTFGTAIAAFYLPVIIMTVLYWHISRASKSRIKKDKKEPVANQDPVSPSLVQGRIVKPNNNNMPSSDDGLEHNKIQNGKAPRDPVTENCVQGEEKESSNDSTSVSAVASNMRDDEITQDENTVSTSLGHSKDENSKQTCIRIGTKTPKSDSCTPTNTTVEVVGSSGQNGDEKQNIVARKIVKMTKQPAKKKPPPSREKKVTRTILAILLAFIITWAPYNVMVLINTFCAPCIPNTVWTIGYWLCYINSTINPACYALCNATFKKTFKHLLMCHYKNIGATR
It counts as cell membranes, CHO-K1, Membrane. Particulars: for Ki: read-out: Ki.

In test [2] the target is Epidermal growth factor receptor (Homo sapiens, UniProt P00533). The experiment in a line: DRUGMATRIX: Protein Tyrosine Kinase, EGF Receptor enzyme inhibition (substrate: Poly(Glu:Tyr)). It counts as cell-based, Insect cells. The settings on record: Not Active = under 50% inhibition at 10 µM.
The target of the next test is T3, Substance-K receptor (Homo sapiens, UniProt P21452). Further: in other assays of this panel Not Active means under 50% inhibition at 10 µM.
T3 sequence (P21452 whole entry): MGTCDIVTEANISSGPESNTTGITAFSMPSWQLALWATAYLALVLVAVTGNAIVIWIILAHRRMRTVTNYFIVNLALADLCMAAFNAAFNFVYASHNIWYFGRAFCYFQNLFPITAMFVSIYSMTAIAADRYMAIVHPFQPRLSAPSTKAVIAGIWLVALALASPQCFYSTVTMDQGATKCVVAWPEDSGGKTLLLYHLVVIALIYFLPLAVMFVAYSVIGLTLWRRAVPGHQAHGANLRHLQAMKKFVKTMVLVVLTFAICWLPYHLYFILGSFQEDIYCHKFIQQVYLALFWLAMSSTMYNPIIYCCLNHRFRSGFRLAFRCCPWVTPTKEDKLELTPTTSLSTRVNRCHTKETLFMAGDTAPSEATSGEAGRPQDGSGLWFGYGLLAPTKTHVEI
The format is cell membranes, CHO, Membrane.

Another test addresses Adenosine receptor A2a (Homo sapiens, UniProt P29274). The experiment in a line: DRUGMATRIX: Adenosine A2A radioligand binding (ligand: […]). It counts as cell membranes, HEK293, Membrane. Particulars: Not Active = under 50% inhibition at 10 µM.

Sequence of Adenosine receptor A2a (P29274 whole entry): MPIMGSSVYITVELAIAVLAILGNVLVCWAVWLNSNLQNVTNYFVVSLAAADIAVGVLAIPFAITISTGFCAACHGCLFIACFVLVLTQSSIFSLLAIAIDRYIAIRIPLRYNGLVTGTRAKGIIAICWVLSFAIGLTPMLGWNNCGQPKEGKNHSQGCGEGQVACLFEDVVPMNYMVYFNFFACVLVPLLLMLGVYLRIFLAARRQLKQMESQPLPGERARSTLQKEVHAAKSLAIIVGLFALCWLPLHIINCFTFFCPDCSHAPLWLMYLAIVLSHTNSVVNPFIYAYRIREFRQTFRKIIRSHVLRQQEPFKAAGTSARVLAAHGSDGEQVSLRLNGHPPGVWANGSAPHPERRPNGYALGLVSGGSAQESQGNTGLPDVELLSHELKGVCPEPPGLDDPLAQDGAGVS
Sequence of Epidermal growth factor receptor (P00533 whole entry): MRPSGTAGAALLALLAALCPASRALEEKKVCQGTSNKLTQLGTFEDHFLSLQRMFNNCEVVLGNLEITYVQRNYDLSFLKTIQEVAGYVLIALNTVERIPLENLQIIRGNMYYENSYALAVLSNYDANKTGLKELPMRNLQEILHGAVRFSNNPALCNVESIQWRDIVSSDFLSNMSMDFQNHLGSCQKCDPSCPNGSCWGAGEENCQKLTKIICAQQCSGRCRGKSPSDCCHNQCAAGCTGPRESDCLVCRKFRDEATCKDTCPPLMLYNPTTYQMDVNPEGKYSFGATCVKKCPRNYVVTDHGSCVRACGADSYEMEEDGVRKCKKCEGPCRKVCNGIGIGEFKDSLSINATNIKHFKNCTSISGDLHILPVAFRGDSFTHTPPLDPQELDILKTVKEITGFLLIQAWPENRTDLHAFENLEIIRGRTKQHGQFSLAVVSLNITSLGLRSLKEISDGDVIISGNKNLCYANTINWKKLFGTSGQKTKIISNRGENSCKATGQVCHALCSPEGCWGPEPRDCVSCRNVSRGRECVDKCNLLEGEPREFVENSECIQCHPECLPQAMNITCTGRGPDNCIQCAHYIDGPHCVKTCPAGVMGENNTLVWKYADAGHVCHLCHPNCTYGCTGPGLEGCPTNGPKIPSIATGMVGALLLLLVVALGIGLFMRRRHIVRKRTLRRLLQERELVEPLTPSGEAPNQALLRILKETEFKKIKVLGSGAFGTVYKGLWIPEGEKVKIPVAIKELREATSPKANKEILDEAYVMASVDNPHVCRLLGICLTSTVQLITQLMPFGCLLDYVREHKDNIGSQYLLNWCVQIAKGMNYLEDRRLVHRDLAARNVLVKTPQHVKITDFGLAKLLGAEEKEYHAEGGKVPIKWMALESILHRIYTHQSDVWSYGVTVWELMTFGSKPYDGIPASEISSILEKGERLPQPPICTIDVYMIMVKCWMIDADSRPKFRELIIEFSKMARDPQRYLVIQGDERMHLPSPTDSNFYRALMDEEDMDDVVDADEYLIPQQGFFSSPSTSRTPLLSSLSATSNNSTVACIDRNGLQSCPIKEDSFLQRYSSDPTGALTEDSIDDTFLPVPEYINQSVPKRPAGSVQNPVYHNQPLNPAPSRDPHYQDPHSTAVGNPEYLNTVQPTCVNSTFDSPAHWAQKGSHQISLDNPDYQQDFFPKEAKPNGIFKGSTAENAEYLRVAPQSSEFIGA

What is called IC50 is the point on the concentration scale where inhibition reaches its midpoint. As for `C[C@@H]1C[C@H]2[C@@H]3CCC4=CC(=O)C=C[C@]4(C)[C@@]3(F)[C@@H](O)C[C@]2(C)[C@H]1C(=O)CO` [DESOXIMETASONE], the 50% inhibitory concentration (IC50) result (at B2 bradykinin receptor; in test [1] (cho-k1); in test [2] (insect cells); against Substance-K receptor (cho); at Adenosine receptor A2a (hek293)) was “Not Active” each time.
Regarding `C[C@@H]1C[C@H]2[C@@H]3CCC4=CC(=O)C=C[C@]4(C)[C@@]3(F)[C@@H](O)C[C@]2(C)[C@@]1(O)C(=O)CO` [DEXAMETHASONE], the IC50 result (on B2 bradykinin receptor; in test [1] (cho-k1); in test [2] (insect cells); against Substance-K receptor (cho); on Adenosine receptor A2a (hek293)) was “Not Active” throughout.
A word on the Ki: it is a measure of affinity in units of concentration, obtained from inhibition or displacement. Take `CN(C)CC[C@@H](c1ccc(Cl)cc1)c1ccccn1` [DEXCHLORPHENIRAMINE]: the IC50 result at B2 bradykinin receptor was “Not Active”; in test [1] (read-out: IC50), 6990 nM; in test [2] (insect cells), “Not Active”; against Substance-K receptor (cho), “Not Active”; on Adenosine receptor A2a (hek293), “Not Active”. For the same molecule, the Ki in test [1] came to 2490 nM.
`C[C@@H]1CC[C@@]2(OC1)O[C@H]1[C@@H](O)[C@H]3[C@@H]4CC[C@H]5C[C@@H](O[C@@H]6O[C@H](CO)[C@H](O[C@@H]7O[C@H](CO)C(O)[C@H](O[C@@H]8OC[C@@H](O)[C@H](O)[C@H]8O)[C@H]7O[C@@H]7O[C@H](CO)[C@H](O)[C@H](O[C@@H]8O[C@H](CO)[C@@H](O)[C@H](O)[C@H]8O)[C@H]7O)[C@H](O)[C@H]6O)[C@H](O)C[C@]5(C)[C@H]4CC[C@]3(C)[C@H]1[C@@H]2C` (some centres undefined) [DIGITONIN]: the IC50 entry (against B2 bradykinin receptor; in test [1] (cho-k1); in test [2] (insect cells); against Substance-K receptor (cho); at Adenosine receptor A2a (hek293)) was “Not Active” each time.
With `OC(CCCN1CCCCC1)(c1ccccc1)c1ccccc1` [DIPHENIDOL], the IC50 entry against B2 bradykinin receptor is “Not Active”; in test [1] (read-out: IC50), 770 nM; in test [2] (insect cells), “Not Active”; on Substance-K receptor (cho), “Not Active”; at Adenosine receptor A2a (hek293) it was “Not Active”. The Ki in test [1] worked out at 274 nM.
In the case of `C[C@H]1O[C@@H](n2cc(F)c(=O)[nH]c2=O)[C@H](O)[C@@H]1O` [DOXIFLURIDINE], the half-maximal inhibitory concentration (IC50) result (against B2 bradykinin receptor; in test [1] (cho-k1); in test [2] (insect cells); against Substance-K receptor (cho); on Adenosine receptor A2a (hek293)) was “Not Active” each time.
For `Cn1c(=O)c2c(ncn2CC(O)CO)n(C)c1=O` (centres undefined) [DYPHYLLINE], the IC50 result (against B2 bradykinin receptor; in test [1] (cho-k1); in test [2] (insect cells); on Substance-K receptor (cho); on Adenosine receptor A2a (hek293)) was “Not Active” in each case.
On to `CC[C@H]1CN2CCc3cc(OC)c(OC)cc3[C@@H]2C[C@@H]1C[C@H]1NCCc2cc(OC)c(OC)cc21` [EMETINE], for which the IC50 result (against B2 bradykinin receptor; in test [1] (cho-k1); in test [2] (insect cells); on Substance-K receptor (cho); on Adenosine receptor A2a (hek293)) was “Not Active” in each case.
Take `C[C@@H](CO)NC(=O)[C@@H]1C=C2c3cccc4[nH]cc(c34)C[C@H]2N(C)C1` [ERGONOVINE]: the IC50 entry (against B2 bradykinin receptor; in test [1] (cho-k1); in test [2] (insect cells); against Substance-K receptor (cho); at Adenosine receptor A2a (hek293)) was “Not Active” each time.
Consider `COC(=O)CCc1ccc(OCC(O)CNC(C)C)cc1` (centres undefined) [ESMOLOL], for which the IC50 entry (against B2 bradykinin receptor; in test [1] (cho-k1); in test [2] (insect cells); against Substance-K receptor (cho); on Adenosine receptor A2a (hek293)) was “Not Active” each time.
Turning to `CCC1(C)CC(=O)NC1=O` (centres undefined) [ETHOSUXIMIDE], the IC50 entry (at B2 bradykinin receptor; in test [1] (cho-k1); in test [2] (insect cells); at Substance-K receptor (cho); at Adenosine receptor A2a (hek293)) was “Not Active” each time.
In the case of `C#C[C@]1(OC(C)=O)CC[C@H]2[C@@H]3CCC4=C[C@@H](OC(C)=O)CC[C@@H]4[C@H]3CC[C@@]21C` [ETHYNODIOL DIACETATE], the IC50 entry (against B2 bradykinin receptor; in test [1] (cho-k1); in test [2] (insect cells); on Substance-K receptor (cho); at Adenosine receptor A2a (hek293)) was “Not Active” throughout.
Regarding `COc1cc([C@@H]2c3cc4c(cc3[C@@H](O[C@@H]3O[C@@H]5CO[C@@H](C)O[C@H]5[C@H](O)[C@H]3O)[C@H]3COC(=O)[C@H]23)OCO4)cc(OC)c1O` [ETOPOSIDE], the IC50 result (at B2 bradykinin receptor; in test [1] (cho-k1); in test [2] (insect cells); at Substance-K receptor (cho); on Adenosine receptor A2a (hek293)) was “Not Active” in each case.
Turning to `C=CCc1ccc(O)c(OC)c1` [EUGENOL], the IC50 entry (against B2 bradykinin receptor; in test [1] (cho-k1); in test [2] (insect cells); against Substance-K receptor (cho); on Adenosine receptor A2a (hek293)) was “Not Active” in each case.
On to `CC(C(=O)O)c1cccc(Oc2ccccc2)c1` (centres undefined) [FENOPROFEN], for which the half-maximal inhibitory concentration (IC50) entry (against B2 bradykinin receptor; in test [1] (cho-k1); in test [2] (insect cells); against Substance-K receptor (cho); on Adenosine receptor A2a (hek293)) was “Not Active” each time.
In the case of `CC(C)(C)NC(=O)[C@H]1CC[C@H]2[C@@H]3CC[C@H]4NC(=O)C=C[C@]4(C)[C@H]3CC[C@]12C` [FINASTERIDE], the IC50 entry (against B2 bradykinin receptor; in test [1] (cho-k1); in test [2] (insect cells); at Substance-K receptor (cho); on Adenosine receptor A2a (hek293)) was “Not Active” each time.
As for `COc1ccc2c3c1O[C@H]1C[C@@H](O)C=C[C@@]31CCN(C)C2` [GALANTAMINE], the IC50 result (against B2 bradykinin receptor; in test [1] (cho-k1); in test [2] (insect cells); at Substance-K receptor (cho); on Adenosine receptor A2a (hek293)) was “Not Active” throughout.
On to `Nc1ccn([C@@H]2O[C@H](CO)[C@@H](O)C2(F)F)c(=O)n1` [GEMCITABINE], for which the IC50 entry (against B2 bradykinin receptor; in test [1] (cho-k1); in test [2] (insect cells); against Substance-K receptor (cho); on Adenosine receptor A2a (hek293)) was “Not Active” throughout.
As for `CC(C)=CCC/C(C)=C/CO` [GERANIOL], the IC50 result (against B2 bradykinin receptor; in test [1] (cho-k1); in test [2] (insect cells); against Substance-K receptor (cho); at Adenosine receptor A2a (hek293)) was “Not Active” in each case.
Consider `N=C(N)NC(=O)Cc1c(Cl)cccc1Cl` [GUANFACINE], for which the IC50 result (at B2 bradykinin receptor; in test [1] (cho-k1); in test [2] (insect cells); against Substance-K receptor (cho); at Adenosine receptor A2a (hek293)) was “Not Active” throughout.
`Oc1c(Cl)cc(Cl)c(Cl)c1Cc1c(O)c(Cl)cc(Cl)c1Cl` [HEXACHLOROPHENE]: the IC50 result against B2 bradykinin receptor was “Not Active”; in test [1] (cho-k1), “Not Active”; in test [2] (read-out: IC50), 749 nM; at Substance-K receptor (read-out: IC50) it was 4140 nM; on Adenosine receptor A2a (read-out: IC50), 1610 nM. In addition, the Ki on Substance-K receptor (read-out: Ki) came to 1380 nM; at Adenosine receptor A2a (read-out: Ki), 906 nM.
With `NNc1nncc2ccccc12` [HYDRALAZINE], the IC50 entry (against B2 bradykinin receptor; in test [1] (cho-k1); in test [2] (insect cells); on Substance-K receptor (cho); on Adenosine receptor A2a (hek293)) was “Not Active” each time.
In the case of `CC(=O)[C@@]1(O)CC[C@H]2[C@@H]3CCC4=CC(=O)CC[C@]4(C)[C@H]3CC[C@@]21C` [HYDROXYPROGESTERONE], the IC50 entry (on B2 bradykinin receptor; in test [1] (cho-k1); in test [2] (insect cells); against Substance-K receptor (cho); on Adenosine receptor A2a (hek293)) was “Not Active” each time.
As for `COC1=C(OC)C(=O)C(CCCCCCCCCCO)=C(C)C1=O` [IDEBENONE], the IC50 result (against B2 bradykinin receptor; in test [1] (cho-k1); in test [2] (insect cells); at Substance-K receptor (cho); on Adenosine receptor A2a (hek293)) was “Not Active” in each case.
With `CC(C)NNC(=O)c1ccncc1` [IPRONIAZID], the half-inhibitory concentration (IC50) entry (at B2 bradykinin receptor; in test [1] (cho-k1); in test [2] (insect cells); at Substance-K receptor (cho); on Adenosine receptor A2a (hek293)) was “Not Active” throughout.
